Results as given in ChEMBL document CHEMBL1201862, “PubChem BioAssay data set” (2004).
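Exposure lasted 48 hours, with cells grown in 96-well plates and compounds tested at five concentrations. GI50 is the concentration that inhibits growth by half.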 Active and inactive are the calls of the source. Rule as the data show it: active = GI50 up to about 1.1 µM and inactive = higher.

Tests used:
Assay in all cases: NCI-60 cell line screen, 48 h
[1] = tested on: A498
[2] = tested on: A549
[3] = tested on: DU-145
[4] = tested on: HL-60
[5] = tested on: Hs-578T
[6] = tested on: K562
[7] = tested on: KM12
[8] = tested on: MDA-MB-435
[9] = tested on: MDA-N
[10] = tested on: Malme-3M
[11] = tested on: NCI-H226
[12] = tested on: NCI-H23
[13] = tested on: NCI-H522
[14] = tested on: OVCAR-3
[15] = tested on: SK-MEL-5
[16] = tested on: SN12C
[17] = tested on: T47D
[18] = tested on: TK-10
[19] = tested on: U-251

COc1ccc(NS(=O)(=O)c2ccc(NC(NC(=O)CC(C)C)(C(F)(F)F)C(F)(F)F)cc2)nn1
GI50 [1]: > 100 µM (inactive)
GI50 [2]: > 100 µM (inactive)
GI50 [3]: > 100 µM (inactive)
GI50 [4]: > 100 µM (inactive)
GI50 [5]: > 100 µM (inactive)
GI50 [6]: > 100 µM (inactive)
GI50 [7]: > 100 µM (inactive)
GI50 [8]: > 100 µM (inactive)
GI50 [9]: > 100 µM (inactive)
GI50 [10]: > 100 µM (inactive)
GI50 [11]: > 100 µM (inactive)
GI50 [12]: > 100 µM (inactive)
GI50 [13]: > 100 µM (inactive)
GI50 [14]: > 100 µM (inactive)
GI50 [15]: > 100 µM (inactive)
GI50 [16]: > 100 µM (inactive)
GI50 [17]: > 100 µM (inactive)
GI50 [18]: > 100 µM (inactive)
GI50 [19]: > 100 µM (inactive)

O=C1c2ccccc2CN1c1ccc(O)cc1
GI50 [1]: > 100 µM (inactive)
GI50 [2]: > 100 µM (inactive)
GI50 [3]: > 100 µM (inactive)
GI50 [4]: > 100 µM (inactive)
GI50 [5]: > 100 µM (inactive)
GI50 [6]: > 100 µM (inactive)
GI50 [7]: > 100 µM (inactive)
GI50 [8]: > 100 µM (inactive)
GI50 [9]: > 100 µM (inactive)
GI50 [10]: > 100 µM (inactive)
GI50 [11]: > 100 µM (inactive)
GI50 [12]: > 100 µM (inactive)
GI50 [13]: > 100 µM (inactive)
GI50 [14]: > 100 µM (inactive)
GI50 [15]: > 100 µM (inactive)
GI50 [16]: > 100 µM (inactive)
GI50 [17]: > 100 µM (inactive)
GI50 [18]: > 100 µM (inactive)
GI50 [19]: > 100 µM (inactive)

C=CCc1oc(C)nc1CCCC
GI50 [1]: > 100 µM (inactive)
GI50 [2]: > 100 µM (inactive)
GI50 [3]: > 100 µM (inactive)
GI50 [4]: > 100 µM (inactive)
GI50 [5]: > 100 µM (inactive)
GI50 [6]: > 100 µM (inactive)
GI50 [7]: > 100 µM (inactive)
GI50 [8]: > 100 µM (inactive)
GI50 [9]: > 100 µM (inactive)
GI50 [10]: > 100 µM (inactive)
GI50 [11]: > 100 µM (inactive)
GI50 [12]: > 100 µM (inactive)
GI50 [13]: > 100 µM (inactive)
GI50 [14]: > 100 µM (inactive)
GI50 [15]: > 100 µM (inactive)
GI50 [16]: > 100 µM (inactive)
GI50 [17]: > 100 µM (inactive)
GI50 [18]: > 100 µM (inactive)
GI50 [19]: > 100 µM (inactive)

CC(C)(Cc1ccccc1)N1C(=O)N1C(C)(C)Cc1ccccc1
GI50 [1]: > 100 µM (inactive)
GI50 [2]: 20.1 µM (inactive)
GI50 [3]: > 100 µM (inactive)
GI50 [4]: 4.78 µM (inactive)
GI50 [5]: > 100 µM (inactive)
GI50 [6]: 27.4 µM (inactive)
GI50 [7]: > 100 µM (inactive)
GI50 [8]: 39.1 µM (inactive)
GI50 [9]: 38.8 µM (inactive)
GI50 [10]: 23.4 µM (inactive)
GI50 [11]: 16.4 µM (inactive)
GI50 [12]: 24 µM (inactive)
GI50 [13]: 13.8 µM (inactive)
GI50 [14]: > 100 µM (inactive)
GI50 [15]: 14.1 µM (inactive)
GI50 [16]: 52 µM (inactive)
GI50 [17]: 65.9 µM (inactive)
GI50 [18]: > 100 µM (inactive)
GI50 [19]: 38 µM (inactive)

Cc1cc(C)c2c(O)cc(-c3ccc(Cl)cc3)nc2n1
GI50 [1]: 32.4 µM (inactive)
GI50 [2]: 30.6 µM (inactive)
GI50 [3]: 54.1 µM (inactive)
GI50 [4]: 23.1 µM (inactive)
GI50 [5]: > 100 µM (inactive)
GI50 [6]: 9.79 µM (inactive)
GI50 [7]: 16.3 µM (inactive)
GI50 [8]: 6.79 µM (inactive)
GI50 [9]: 7.11 µM (inactive)
GI50 [10]: 30.8 µM (inactive)
GI50 [11]: > 100 µM (inactive)
GI50 [12]: 75 µM (inactive)
GI50 [13]: 46.8 µM (inactive)
GI50 [14]: 26.9 µM (inactive)
GI50 [15]: 17.1 µM (inactive)
GI50 [16]: > 33 µM (inactive)
GI50 [17]: 40 µM (inactive)
GI50 [18]: > 100 µM (inactive)
GI50 [19]: 36.8 µM (inactive)

Cc1ccc(-c2c3nc(c(-c4ccc(C)cc4)c4ccc([nH]4)c(-c4ccc(OCC5COC(C)(C)O5)cc4)c4nc(c(-c5ccc(C)cc5)c5ccc2[nH]5)C=C4)C=C3)cc1 (stereo not given)
GI50 [1]: 1.13 µM (inactive)
GI50 [2]: > 31.6 µM (inactive)
GI50 [3]: > 31.6 µM (inactive)
GI50 [4]: > 10 µM (inactive)
GI50 [5]: 10.3 µM (inactive)
GI50 [6]: > 10 µM (inactive)
GI50 [7]: > 31.6 µM (inactive)
GI50 [8]: > 31.6 µM (inactive)
GI50 [9]: > 31.6 µM (inactive)
GI50 [10]: > 31.6 µM (inactive)
GI50 [11]: > 31.6 µM (inactive)
GI50 [12]: > 31.6 µM (inactive)
GI50 [13]: > 31.6 µM (inactive)
GI50 [14]: > 31.6 µM (inactive)
GI50 [15]: > 31.6 µM (inactive)
GI50 [16]: > 31.6 µM (inactive)
GI50 [17]: > 31.6 µM (inactive)
GI50 [18]: 21 µM (inactive)
GI50 [19]: > 31.6 µM (inactive)

CN(C)CCCNC(=O)N/N=C/c1ccc(O)cc1
GI50 [1]: > 100 µM (inactive)
GI50 [2]: > 100 µM (inactive)
GI50 [3]: > 100 µM (inactive)
GI50 [4]: > 100 µM (inactive)
GI50 [5]: > 100 µM (inactive)
GI50 [6]: > 100 µM (inactive)
GI50 [7]: > 100 µM (inactive)
GI50 [8]: > 100 µM (inactive)
GI50 [9]: > 100 µM (inactive)
GI50 [10]: > 100 µM (inactive)
GI50 [11]: > 100 µM (inactive)
GI50 [12]: > 100 µM (inactive)
GI50 [13]: > 100 µM (inactive)
GI50 [14]: > 100 µM (inactive)
GI50 [15]: > 100 µM (inactive)
GI50 [16]: > 100 µM (inactive)
GI50 [17]: > 100 µM (inactive)
GI50 [18]: > 100 µM (inactive)
GI50 [19]: > 100 µM (inactive)

CC(=O)NC1C(OCc2ccccc2)OC(CO)C(O)C1OC(C)C(=O)N[C@@H](C)C(=O)N[C@H](CCC(=O)NCCNCCNc1c2ccccc2nc2cccc([N+](=O)[O-])c12)C(N)=O (stereo not given in full)
GI50 [1]: 0.137 µM (active)
GI50 [2]: 0.0244 µM (active)
GI50 [3]: 0.0241 µM (active)
GI50 [4]: 0.308 µM (active)
GI50 [5]: 0.356 µM (active)
GI50 [6]: 0.0311 µM (active)
GI50 [7]: 0.0783 µM (active)
GI50 [8]: 0.0389 µM (active)
GI50 [9]: 0.0708 µM (active)
GI50 [10]: 0.043 µM (active)
GI50 [11]: 0.149 µM (active)
GI50 [12]: 0.022 µM (active)
GI50 [13]: < 0.01 µM (active)
GI50 [14]: 0.226 µM (active)
GI50 [15]: 0.0159 µM (active)
GI50 [16]: 0.104 µM (active)
GI50 [17]: 0.0461 µM (active)
GI50 [18]: 0.135 µM (active)
GI50 [19]: 0.0944 µM (active)

COC(=O)C1=C(OC(=O)/C(=C/c2ccccc2)c2ccc(OC)cc2)C(C(=O)OC)[C@@]2(O)[C@@H](C(=O)OC)[C@H](C)C[C@@H]1[C@@H]2C(=O)OC (stereo not given in full)
GI50 [1]: > 100 µM (inactive)
GI50 [2]: 50.1 µM (inactive)
GI50 [3]: > 100 µM (inactive)
GI50 [4]: > 100 µM (inactive)
GI50 [5]: 20.6 µM (inactive)
GI50 [6]: > 100 µM (inactive)
GI50 [7]: > 100 µM (inactive)
GI50 [8]: > 100 µM (inactive)
GI50 [9]: > 100 µM (inactive)
GI50 [10]: > 100 µM (inactive)
GI50 [11]: > 100 µM (inactive)
GI50 [12]: 50.1 µM (inactive)
GI50 [13]: 35.3 µM (inactive)
GI50 [14]: > 100 µM (inactive)
GI50 [15]: > 100 µM (inactive)
GI50 [16]: > 100 µM (inactive)
GI50 [17]: > 100 µM (inactive)
GI50 [18]: > 100 µM (inactive)
GI50 [19]: 63.2 µM (inactive)

N[C@H](Cc1ccc2oc3cc(=O)c4ccccc4c-3nc2c1)C(=O)O
GI50 [1]: 49.7 µM (inactive)
GI50 [2]: 33.7 µM (inactive)
GI50 [3]: 21.7 µM (inactive)
GI50 [4]: 27.7 µM (inactive)
GI50 [5]: 39.6 µM (inactive)
GI50 [6]: 26.2 µM (inactive)
GI50 [7]: 37.3 µM (inactive)
GI50 [8]: 15.5 µM (inactive)
GI50 [9]: 15.3 µM (inactive)
GI50 [10]: 21 µM (inactive)
GI50 [11]: 40.8 µM (inactive)
GI50 [12]: 23.7 µM (inactive)
GI50 [13]: 44.7 µM (inactive)
GI50 [14]: 29.2 µM (inactive)
GI50 [15]: 20.1 µM (inactive)
GI50 [16]: 42.5 µM (inactive)
GI50 [17]: > 100 µM (inactive)
GI50 [18]: 97.5 µM (inactive)
GI50 [19]: 98.4 µM (inactive)
